Measured values published in patent US20250304923A1, “Novel HIV-1 Variants And Their Methods Of Use In An Animal Challenge Model” (priority 2022, published 2025).
Like-named read-outs stand apart in the source and are kept apart here.

Legend:
[1] = test system: virus stocks; assay: Susceptibility of virus stocks to post-exposure prophylaxis drugs (VELA Diagnostics); details: all virus stocks, prior to animal testing
Excerpt: Virus stocks and biologic samples from infected animals were handled with biosafety level 3 operating procedures within a biosafety level 2 physical facility. […] This ensured that any research personnel, in case of accidental exposure to viruses or virus-exposed animals, could be successfully treated with standard post-exposure protocols if necessary.

[2] = design: species or system Nancy Ma's owl monkeys; details: monkey, in vivo
[3] = test system: HIVnom
Excerpt: Two Nancy Ma's owl monkeys were intravenously injected with 1.3×10^6 infectious units of HIVnom1 and another two with 2.1×10^6 infectious units of HIVnom2 (FIG. 2a). Blood was drawn weekly for up to 30 weeks, with the “0” timepoint taken from the leg opposite to the site of virus injection five minutes after inoculation. Blood samples were sent to the University of Washington Clinical Retrovirology Laboratory (a human clinical diagnostics lab in Seattle, WA, USA) for determination of plasma viremia by RT-qPCR.
Treatment consisted of a once-daily subcutaneous injection. […] Study animals were maintained at 6 mg/kg for an additional 1-2 weeks.
Plasma vRNA quantification was performed by the commercial human diagnostic services at the University of Washington Retrovirology Laboratory (UWRL; Department of Laboratory Medicine, Seattle, WA, USA) using the Abbott RealTime HIV-1 RNA assay (Abbot #06L18-090) in conjunction with RT-qPCR instrumentation, practices, and procedures standard to that laboratory. Briefly, 500 μL of frozen EDTA owl monkey plasma were submitted for analysis and then diluted to 1 mL by the laboratory prior to processing. The range of vRNA quantitation for the assay is 40-10,000,000 HIV-1 genomes/mL when using undiluted samples, although the range of vRNA reported in this study was 80-20,000,000 HIV-1 genomes per mL due to the dilution required for the animal samples. The laboratory reported four possible outcomes: 1) virus detected and a vRNA quantification in HIV-1 genomes/mL; 2) virus detected but numbers were below the lower limit of quantification (<80 HIV-1 genomes/mL); 3) virus detected but the numbers were above the upper limit of quantification (>20 million HIV-1 genomes/mL); 4) virus not detected. The vRNA assay was performed for each animal prior to the start of the study, on the day of exposure (day 0), and on multiple days throughout the study (File S1).

[4] = test system: blood lymphocytes, NK cells, B cells, monocytes; assay: Immune cell dynamics during dexamethasone administration (flow cytometry of blood); design: species or system owl monkeys; details: monkey, in vivo
Method: FIG. S8. […] In the top graph, the plasma viremia is reported for each of three animals over the course of the experiment. ND=no HIV-1 RNA detected. In the remainder of the rows, flow cytometry was performed on fresh Nancy Ma's owl monkey blood to enumerate the indicated cell types over the time course of infection. Antibodies: CD8 Invitrogen #MHCD0801; CD4 BD #550631; CD3 BD #563916 or #563918; CD20 BD #340941; CD16 BD #563892; CD14 BD #557923.
There are other data to support this. In a few animals, Applicants observe undetectable viremia after the acute phase, like elite controllers (one such animal shown in FIG. S29A). Set point viremia in these animals is below 80 HIV-1 RNA copies per mL, our assay LoQ.

With C[C@H](Cn1cnc2c(N)ncnc21)OCP(=O)(O)O [tenofovir] the “susceptibility of virus stocks to drug” value [1] was “susceptible”.

For Dexamethasone sodium phosphate, the hypokalemia [2] was “mild hypokalemia noted to occur in some animals”, the “peak rebound viremia upon dexamethasone treatment” value ([3]; animal BO) was 92 HIVnom genomes per mL and the “peak rebound viremia upon dexamethasone treatment” value ([3]; animal JI) was 258 HIVnom genomes per mL. The “peak rebound viremia upon dexamethasone treatment” value ([3]; animal KI) was 612 HIVnom genomes per mL, the “peak rebound viremia upon dexamethasone treatment” value ([3]; animal RI) was 18,220 HIVnom genomes per mL and the “virus rebound in blood during dexamethasone treatment” value ([3]; three of the four animals infected with HIVnom1 or HIVnom2, subcutaneous, several weeks) was “virus rebounded into the blood to detectable levels”. The “depletion of blood immune cells” value [4] was “reversibly depleting blood lymphocytes, NK cells, and B cells, but not monocytes”.

In the case of Cc1nnc(C(=O)NC(C)(C)c2nc(C(=O)NCc3ccc(F)cc3)c(O)c(=O)n2C)o1 [raltegravir], the “susceptibility of virus stocks to drug” value [1] is reported as “susceptible”.

For Nc1nc(=O)n([C@@H]2CS[C@H](CO)O2)cc1F [emtricitabine], the “susceptibility of virus stocks to drug” value [1] was “susceptible”.
